# “Also recorded” adds a separate entry of the source.
# Experiments:
# [1] = test system: KRAS; test: KRAS-GTP pull-down by Raf-1-RBD and Western blot in lung cancer cell lines; format: cell-based, human; conditions: 48 h
# Description: “0” means DMSO vehicle control. […] Expression levels of KRAS, pERK, active caspase 3, PARP cleavage, Beclin1, LC3-I and LC3-II in total lysate were analyzed by Western blot.
# A library containing small molecules from the National Cancer Institute (NCI) was employed to dock the GTP/GDP binding pocket of KRAS (PDB ID code: 4EPT) using the University of California, San Francisco (UCSF) DOCK 6.1 program suite. The small molecules were ranked according to their energy scores. Top 500 small molecules with predicted binding energies were selected for screening of cytotoxicity in human lung cancer cells by sulforhodamine B (SRB) assay. […] This lead compound was named KRAS agonist-533 (KRA-533) (FIG. 1A). To test whether KRA-533 regulates KRAS activity in lung cancer cells, human lung cancer cell lines with or without KRAS mutation were treated with KRA-533 (10 μM) for 48 h. […] Cell proliferation was also measured following treatment of cells for 48 h using MTS Cell Proliferation Colorimetric Assay Kit.
# Activated KRAS can trigger cell death via apoptosis and autophagy-associated cell death in cancer cells. To test whether KRA-533- activated KRAS promotes apoptosis and autophagic cell death, A549, H157, Calu-1 and H292 cells were treated with increasing concentrations of KRA-533 for 48 h, followed by analysis of KRAS activity, apoptosis and autophagy. […] Autophagy was measured by analysis of LC3-I/LC3-II and p62 following treatment of cells with KRA-533. It is well known that p62 is an autophagy receptor or substrate that can be degraded by autophagy. In addition to LC3-II, p62 was analyzed as another autophagy marker. […] To further quantify the level of autophagy, a GFP-LC3 construct was used to indicate autophagosomes. After treatment with KRA-533, GFP-LC3 redistributed from a diffuse staining pattern in the cytoplasm and nucleus to a cytoplasmic punctate structure that specifically labels pre-autophagosomal and autophagosomal membranes (i.e. GFP-LC3 vac cells). […] These findings indicate that, in addition to apoptosis, KRA-533 can also induce autophagic cell death.
# [2] = target: KRAS G12D (Homo sapiens, UniProt P01116, G12D); test: Thermal shift assay, purified KRAS G12D; format: binding; conditions: increasing concentrations
# Description: Melting temperature (Tm) values of DMSO Ctrl and 15 μM of KRA-533 are shown.
# (§1) To test whether KRA-533 directly binds to KRAS, a thermal shift assay was employed. […] To further assess whether KRA-533 activates KRAS directly, an in vitro cell-free GDP-GTP exchange experiment was carried out. Purified WT, G12C, G12D or G13D mutant KRAS proteins were incubated with purified GEF (RASGRP1) and GAP (RASA1) proteins in reaction buffer containing [γ-35S]-GTP in the absence or presence of increasing concentrations of KRA-533 at 25° C. for 60 min. KRAS activity was quantified by liquid scintillation counting. […] These findings indicate that KRA-533 not only activates WT KRAS but also has the capacity to further enhance KRAS activity of mutant KRAS.
# [3] = target: WT KRAS (Homo sapiens, UniProt P01116); test: In vitro cell-free GDP-GTP exchange, WT KRAS; format: biochemical; conditions: with GEF (RASGRP1) and GAP (RASA1), 25° C., 60 min
# Description: GTPγS, purified GFP (RASGRP1, 180 nM) and GAP (RASA1, 180 nM) at 25° C. in the presence or absence of increasing concentrations of KRA-533.
# GTPγS, purified GFP (RASGRP1, 180 nM) and GAP (RASA1, 180 nM) at 25° C. in the presence or absence of 15 μM KRA-533. The radioactivity remaining on the protein after intensive washing was quantified by liquid scintillation.
# as §1
# (§2) To further test this intracellularly, GFP-tagged WT, S17A, K117A and AA KRAS mutants were exogenously transfected into A549 cells. […] Activities of exogenous GFP-tagged WT and KRAS mutants were analyzed by Western blot using GFP antibody.
# [4] = target: T1, GFP-tagged KRAS WT (Homo sapiens, UniProt P01116); test: Raf-1-RBD pull-down of exogenous GFP-tagged KRAS WT in A549 cells; format: cell-based; conditions: 15 μM, 48 h
# T1 construct: expressed in transfected cells; host or cells: A549
# Description: The GFP-tagged exogenous KRAS-GTP (GFP-KRAS-GTP) was analyzed by Western blot using anti-GFP antibody.
# as §2
# [5] = test system: G12D mutant KRAS-driven lung cancer; test: Genetically engineered LSL-KRASG12D mouse lung cancer model; format: in vivo
# Source text: Tumor numbers were counted under the microscope and tumor area was quantified using modular imaging software.
# KRAS mutations are common genetic alterations in NSCLC and contribute to the resistance of lung cancer to conventional therapy. To test the potency of KRA-533 in mutant KRAS-driven lung cancer, lox-stop-lox (LSL)-KRASG12D mice were generated. By engineering LoxP DNA elements into the mouse genome that surround a synthetic ‘stop’ element (lox-stop-lox) inserted in front of mutant KRAS G12D, one can ‘turn-on’ mutant KRAS G12D with delivery of Cre recombinase. To control the expression of KRAS G12D, a LSL cassette was engineered into the first intron of the KRAS gene. The LSL cassette consists of transcriptional and translational stop elements flanked by LoxP sites that prevent the expression of the mutant allele until the stop elements are removed by the activity of Cre recombinase. To produce KRAS G12D mutant-driven lung cancer, alleles were induced in mouse lung using intranasal administration of a lentiviral Cre recombinase. Primary lung tumors developed around 12 weeks post-inoculation.
# To assess whether KRA-533 has antitumor activity against G12D mutant KRAS-driven lung cancer in genetically engineered mouse models, KRA-533 (20 mg/kg/d) or vehicle control was administered i.p. starting at 10 weeks post AdeCre delivery. After treatment for 3 months, mice were euthanized for analysis of tumor burden. […] There were 3 deaths out of 8 mice in the control group versus 1 death out of 8 mice in the KRA-533 treatment group in four months before euthanization.
structure (smiles),measurement,setting,value
"O=C(CBr)NCCCCc1ccc(C(=O)O)cc1 [KRA-533, 4-(4-(2-bromoacetamido)butyl)benzoic acid]","KRAS activity, cell lines bearing KRAS mutation versus without",[1]; 10 μM,enhanced KRAS activity to a greater extent in cell lines bearing KRAS mutation than in cell lines without KRAS mutation
same,KRAS activity (GTP-KRAS pulled down by Raf-1-RBD),"[1]; 10 μM, human lung cancer cell lines with or without KRAS mutation","enhanced KRAS activity in most human lung cancer cell lines tested, except H292"
same,"KRAS activity (KRAS-GTP), dose response","[1]; A549, H157, Calu-1 and H292 cells, 0, 5, 10, 15 μM",enhanced KRAS activity in a dose-dependent manner
same,"melting temperature (Tm) / binding, KRAS G12D",[2],Dose dependent increases in melting temperature (Tm)
same,"KRAS activity (liquid scintillation), WT KRAS",[3],activated WT KRAS to increase its activity in a dose-dependent manner; also recorded: directly activated
same,activity of exogenous GFP-tagged WT KRAS (GFP-KRAS-GTP),[4],activated exogenous WT and S17A
same,deaths in four months before euthanization,[5]; 20 mg/kg/d i.p.,1 death out of 8 mice
same,weight loss and normal tissue toxicity,[5]; 20 mg/kg/d i.p.,Slight weight loss but no significant normal tissue toxicity
same,tumor burden and multiplicity in the lung,"[5]; 20 mg/kg/d i.p. from 10 weeks post AdeCre, four months",significant reduction of tumor burden and multiplicity in the lung
same,survival,"[5]; 20 mg/kg/d i.p., compared with the control group",prolonged survival

# — US12144791B2, “KRAS agonists, pharmaceutical compositions, and uses in managing cancer” (Emory University, priority 2019, dated 2024)
